Source: patent US20220264883A1, “IMIDAZOTHIAZOLE COMPOUNDS AND METHODS FOR TREATING PLANT NEMATODE INFECTIONS” (The Governing Council of the University of Toronto, priority 2019, published 2022)

Experiments:
[1] = HEK cell culture and dose-response experiments; type: cell-based, Human; settings: human, HEK293 cells, non-target system, CellTiter-Blue, read-out: HEK Cells LC50
Procedure: HEK293 cells were seeded into 96-well plates, at 5000 cells per well, in 100 μL total volumes of DMEM/10% FBS/1% PS media and grown overnight at 37° C. in the presence of 5% CO2. Compounds (0.5 μL volumes from appropriate source plates) were then added to cells, and growth was continued for an additional 48 hours. Following growth, 10 μL of CellTiter-Blue Viability reagent (Promega) was added to each well, and plates were incubated for an additional 4 hours at 37° C. in the presence of 5% CO2. Fluorescence measurements (560 nm excitation/590 nm emission) were then performed using a CLARIOstar Plate Reader (BMG Labtech) to quantify reagent reduction and estimate cell viability.

[2] = Danio rerio (zebrafish) embryo dose-response experiments; type: in vivo; settings: AB/Tubingen, Danio rerio (zebrafish), in vivo, other: immersion in chemical-treated water; non-target system; embryos, 24 hours exposure; read-out: D. rerio LC50
Procedure: Zebrafish chemical assays were performed similarly to previously described methods^63. In brief, fish were maintained at 28.5° C. on a 14/10 hour light/dark cycle and staged according to hours post fertilization (hpf). For each biological replicate, eggs from LT fish (AB/Tubingen strain) were collected at 4 hpf. At 24 hpf, embryos were arrayed in 24 well plates, 10 per well. In 2 ml tubes, 4 μl of chemical dissolved in DMSO at the appropriate concentration was added to 800 μl of water and then vortexed for 30 s intensively. Water was removed from the embryos in the wells and 800 μl of chemical-treated water was transferred to each of the wells. The DMSO control wells contained DMSO alone. The final DMSO concentration in every well was 0.5% (v/v). […] The embryos were incubated in the chemicals for 24 hours and scored for death and toxicity at 48 hpf. Toxicity was defined as the embryos showing developmental defects such as a curved body, reduced body size, skin whiteness, and heart edema. “Relative viability” was calculated by dividing the number of viable and properly developed embryos in the treatment wells by the average number of viable and properly developed embryos across six DMSO control wells. Three biological replicates were performed for each dose-response experiment, and the relative viability values were averaged across the three replicates.

C. oncophora = assay: whole plant or invertebrate; type: in vivo; settings: Cooperia oncophora, 48 h; eggs of ivermectin-resistant strain, 2 days, egg hatch
Description: Fresh cattle faeces containing eggs of an ivermectin-resistant strain of C. oncophora were kindly supplied by Dr. Doug Colwell and Dawn Gray (Lethbridge Research Station, Agriculture and Agri-Food Canada). Established methods were used to carry out the experimental cattle infections^60, and these methods were approved by the Lethbridge AAFC Animal Care committee and conducted under animal use license ACC1407. Cattle faeces containing C. oncophora eggs were stored anaerobically at room temperature for a maximum of 6 days before use. Eggs were isolated from faeces using a standard saturated salt flotation method^61 immediately before the egg hatch assay. 80 μl of distilled and deionized water was added to each well of a 96-well culture plate, and then 1 μl of chemical at the appropriate concentration in DMSO was added to each well using a multichannel pipette. Approximately 50 eggs were added per well in 20 μl of water for a final volume of 100 μl in each well, the final DMSO concentration was 1% (v/v). The eggs were incubated in the chemicals for 2 days at room temperature, after which hatching was stopped by the addition of 1 μl iodine tincture to each well. […] “Relative viability” values were calculated by dividing the fraction of eggs that hatched at each concentration by the fraction of eggs that hatched in the corresponding DMSO control wells. Two biological replicates were performed for each dose-response experiment, and the relative viability values were averaged across the biological replicates. The average hatch rate for the DMSO control wells was greater than 93% for both biological replicates. LC50 values were calculated in the same manner as for the C. elegans dose-response assays

Row | SMILES | CC50 at 48 h [1] [µM] | LC50 at 24 h [2] [µM] | LC50 (C. oncophora) [µM]
1 | Clc1ccc(-c2cn3ccsc3n2)cc1 [Ia] | > 100 | > 100 | 3.7
2 | Fc1ccc(-c2cn3ccsc3n2)cc1 [Ib] | > 100 | > 100 | 5.4
3 | Cc1csc2nc(-c3ccccc3)cn12 [Compound Ie] | > 100 | > 100 | 0.9
